We go through one compound from patent US11628164B2, “Composition containing salsolinol for treating liver cancer” (SUNGSHIN WOMEN'S UNIVERSITY R&DB FOUNDATION, priority 2020, dated 2023).

Series [1] relates to SK-Hep1. The experiment in a line: Cell migration assay (culture-insert gap). The note with it: 25 μM salsolinol. The format is cell-based, human. The method, then: A culture-insert (Ibidi; Martinsried, Germany) is attached to a 24-well plate to make a 500 μm interval, and then the cultured liver cancer cell lines (SK-Hep1) are dispensed so as to have a concentration of 1.5×10^5 cells. And the culturing is performed for 24 hours. After detaching the insert from the plate, each well is treated with the salsolinol so as to have a concentration of 25 μM. After the culturing is performed for 24 hours and for 48 hours, and the sample is photographed by a microscope to check the ability of migrating cells. The SK-Hep1 cells are dispensed into the culture-insert so as to have a concentration of 1.5×10^5 cells, and the culturing is performed for 24 hours. After detaching the insert from the plate, each well is treated with the salsolinol so as to have a concentration of 25 μM. After the culturing is performed for 24 hours and 48 hours, and the sample is photographed by a microscope to check the cell migration ability (refer to FIG. 3). […] When the culturing is performed for 48 hours, a large number of SK-Hep1 cells are migrated, and it is confirmed that the scratch disappears.

Series [2] concerns SK-Hep1. The experiment in a line: Colony formation experiment. The format is cell-based, human. On the procedure:
Among the human-derived liver cancer cell lines, the SK-Hep1, which is a liver cancer cell lines, is dispensed into 96-wells so as to have a concentration of 1×10^4 cells, and then, the SK-Hep1 is treated once every two or three days so that the salsolinol has a concentration of 25 μM or 50 μM. The salsolinol-treated the SK-Hep1 is further cultured for 3 days under the above-mentioned conditions. After that, the SK-Hep1 is fixed with 4% formaldehyde, stained with crystal violet for 2 hours, and after extraction with an acetic acid, the absorbance (570 nm) is measured. After culturing the SK-Hep1 cells at 1×10^4 cells/well for 24 hours, the SK-Hep1 is treated three times at 48 hour intervals with the salsolinol so as to have a concentration of 25 μM or 50 μM, and then the degree of colony formation is checked (refer to FIG. 2). The colony formation experiment for the SK-Hep11 is repeated a total of 4 times, the statistic process is performed, and comparison and analysis are performed. As a result of the experiment, in the case of being treated with the salsolinol having a concentration of 25 μM, it is confirmed that the colony formation ability of the SK-Hep1 is decreased to a level of 50% compared with the SK-Hep1 not treated with the salsolinol. […]

Series [3] relates to STAT3, pSTAT3, PCNA, 15-PGDH, p53 in SK-Hep1. The experiment in a line: Western blotting of tumor-related genes in SK-Hep1. It counts as cell-based, human. On the procedure: 5×10^5 cells of Human-derived liver cancer cell lines SK-Hep1 and SNU387 are cultured in a 60 mm culture vessel, the cells are lysed, and proteins are separated through electrophoresis. And after that, western blotting analysis is performed by using a specific antibody. After treatment of the SK-Hep1 and the SNU387 with the salsolinol at different times and concentrations, the cells are washed with PBS, and the cells are scraped off with a scraper. The cells are lysed in a lysis buffer for 1 hour, and after that, centrifuge separation is performed at 13,000 rpm for 15 minutes at 4° C., and only the supernatant is extracted. 20 μg of protein contained in the supernatant is electrophoresed on SDS-polyacrylamide gel, and after that, transferred to a PVDF membrane for 2 hours. The sample reacts with antibodies pSTAT3(#9145), STAT3(#9132), PCNA(#2586), 15-PGDH(cayman No. 160615), p53(sc-126), p53(sc-99), pAKT(#9271), AKT(#9272), Annexin A2(#8235), and GAPDH(sc-32233). The protein is detected by using an enhanced chemiluminascence (ECL) detection solution. As a result of the above-described experiment, it is confirmed that the activity of cells in the liver cancer cell lines SK-Hep1 is decreased by the salsolinol, and particularly, the specificity for the liver cancer cell lines is confirmed. In order to check the correlation between the decrease in the activity of cells of the liver cancer cell lines by the salsolinol and the gene expression, the SK-Hep1 which is a liver cancer cell line and the SNU387 which is a liver cancer cell line are cultured, and the samples are treated with 25 μM of salsolinol d for 72 hours. After the treatment, changes in the expression levels of tumor-related genes such as STAT3, pSTAT3, PCNA, 15-PGDH, and p53 are checked (refer to FIG. 4).
Background: A western blot detects proteins with antibodies after separation by electrophoresis.

The test system of series [4] is SK-Hep1. The conditions noted are these: cited from earlier work.
Where [5] appears, read: SK-Hep1, 25 μM salsolinol, 72 hours.
Where [6] appears, read: SK-Hep1, from KR10-2019-0129765.

As for `CC1NCCc2cc(O)c(O)cc21` (stereo not shown) [salsolinol, 6,7-dihydroxy-1-methyl-1,2,3,4-tetrahydroisoquinoline], in series [1] (24 hours), the cell migration ability entry was “some cells are migrated, but the scratch portion is clearly distinguished”. Further, the cell migration ability entry in series [1] (48 hours) is “scratch portion does not disappear”. In addition, the “colony formation ability compared with untreated SK-Hep1” value in series [2] (25 μM salsolinol) came to 50%. In addition, in series [2] (50 μM salsolinol), the “colony formation ability compared with untreated SK-Hep1” value was 20%. In addition, in series [3] (setting [5]), the 15-PGDH expression level result is “increased”, the PCNA expression level result is “slightly decreased”, the STAT3 expression level entry is “remains constant” and the p53 expression level result is “increased”. Moreover, in series [3] (setting [5]), the pSTAT3 expression level entry is on record as “decreased”. In series [3] (male-derived liver cancer cell lines, time course after treatment), the “phosphorylation of STAT3 over time” value is “rapidly increased initially, but it is rapidly decreased after 24 hours”. Also, the STAT3 phosphorylation result in series [4] (SK-Hep1, from KR10-2019-0129765, 24 hours) is “increases signal transducer and transcription 3 (STAT3) phosphorylation”. Further, in series [4] (setting [6]), the HO-1 expression result is reported as “increased” and the cytotoxicity result is recorded as “exhibits cytotoxicity”.
